Laboratory results reported in PubChem BioAssay (NCI).
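Assay format: 96-well plates, 48-hour exposure. TGI is the concentration that stops growth completely.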

Columns and labels:
Experiment in all cases: DTP human tumour cell line panel, 48 h
[1] = test system: NCI-H23 lung
[2] = test system: HCC-2998 colon
[3] = test system: NCI-H226 lung
[4] = test system: NCI/ADR-RES ovarian
[5] = test system: SW-620 colon
[6] = test system: HCT-116 colon
[7] = test system: OVCAR-5 ovarian
[8] = test system: M14 melanoma
[9] = test system: COLO 205 colon
[10] = test system: HCT-15 colon
[11] = test system: SK-OV-3 ovarian
[12] = test system: SK-MEL-2 melanoma
[13] = test system: SN12C renal
[14] = test system: OVCAR-3 ovarian
[15] = test system: SK-MEL-28 melanoma
[16] = test system: OVCAR-8 ovarian
[17] = test system: MDA-N
[18] = test system: TK-10 renal
[19] = test system: K-562 leukemia
[20] = test system: SNB-75 CNS
[21] = test system: UO-31 renal
[22] = test system: DU-145 prostate
[23] = test system: HOP-62 NSCLC
[24] = test system: SR leukemia
[25] = test system: UACC-257 melanoma
[26] = test system: SF-295 CNS
[27] = test system: NCI-H460 lung
[28] = test system: MDA-MB-231 breast
[29] = test system: T-47D breast
[30] = test system: EKVX NSCLC
[31] = test system: A498 renal
[32] = test system: SNB-19 CNS
[33] = test system: BT-549 breast
[34] = test system: MOLT-4 leukemia
[35] = test system: UACC-62 melanoma
[36] = test system: U251 CNS
[37] = test system: MCF7 breast
[38] = test system: 786-0 renal
[39] = test system: RXF 393 renal
[40] = test system: CAKI-1 renal
[41] = test system: HOP-92 NSCLC
[42] = test system: PC-3 prostate
[43] = test system: MDA-MB-435
[44] = test system: SF-539 CNS
[45] = test system: IGROV1 ovarian
[46] = test system: RPMI-8226 leukemia
[47] = test system: KM12 colon
[48] = test system: OVCAR-4 ovarian
[49] = test system: A549 NSCLC
[50] = test system: SF-268 CNS
[51] = test system: ACHN renal
[52] = test system: SK-MEL-5 melanoma
[53] = test system: HT29 colon
[54] = test system: MALME-3M melanoma
[55] = test system: LOX IMVI melanoma
[56] = test system: CCRF-CEM leukemia
[57] = test system: HL-60(TB) leukemia
[58] = test system: NCI-H522 lung

Question: `COc1ccc(/C=C2/SC(c3ccc(Cl)cc3)N(NC(=O)CCCCCCCCC(=O)NN3C(=O)/C(=C\c4ccc(OC)c(OC)c4)SC3c3ccc(Cl)cc3)C2=O)cc1OC` (stereo not drawn) was tested. Which TGI [1] did it give?
Answer: Its TGI is 47.1 µM.

Question: What about the TGI [2] of the same compound?
Answer: Its TGI is greater than 100 µM.

Question: What about the TGI [3] of the same compound?
Answer: Its TGI is greater than 100 µM.

Question: What about the TGI [4] of the same compound?
Answer: Its TGI is greater than 100 µM.

Question: What about the TGI [5] of the same compound?
Answer: Its TGI is greater than 100 µM.

Question: And the TGI [6]?
Answer: Its TGI is greater than 100 µM.

Question: What about the TGI [7] of the same compound?
Answer: The TGI was greater than 100 µM.

Question: What about the TGI [8] of the same compound?
Answer: Its TGI is greater than 100 µM.

Question: And the TGI [9]?
Answer: The TGI was greater than 100 µM.

Question: What about the TGI [10] of the same compound?
Answer: Its TGI is greater than 100 µM.

Question: And the TGI [11]?
Answer: The TGI was greater than 100 µM.

Question: What about the TGI [12] of the same compound?
Answer: The TGI was greater than 100 µM.

Question: What about the TGI [13] of the same compound?
Answer: The TGI was greater than 100 µM.

Question: What about the TGI [14] of the same compound?
Answer: The TGI was greater than 100 µM.

Question: And the TGI [15]?
Answer: Its TGI is greater than 100 µM.

Question: And the TGI [16]?
Answer: Its TGI is greater than 100 µM.

Question: What about the TGI [17] of the same compound?
Answer: Its TGI is 98.4 µM.

Question: What about the TGI [18] of the same compound?
Answer: Its TGI is greater than 100 µM.

Question: And the TGI [19]?
Answer: Its TGI is greater than 100 µM.

Question: And the TGI [20]?
Answer: The TGI was greater than 100 µM.

Question: What about the TGI [21] of the same compound?
Answer: Its TGI is greater than 100 µM.

Question: And the TGI [22]?
Answer: The TGI was greater than 100 µM.

Question: What about the TGI [23] of the same compound?
Answer: The TGI was 57.9 µM.

Question: And the TGI [24]?
Answer: The TGI was greater than 100 µM.

Question: What about the TGI [25] of the same compound?
Answer: Its TGI is greater than 100 µM.

Question: What about the TGI [26] of the same compound?
Answer: Its TGI is 59.9 µM.

Question: What about the TGI [27] of the same compound?
Answer: The TGI was greater than 100 µM.

Question: What about the TGI [28] of the same compound?
Answer: Its TGI is greater than 100 µM.

Question: And the TGI [29]?
Answer: Its TGI is greater than 100 µM.

Question: And the TGI [30]?
Answer: The TGI was 78.7 µM.

Question: And the TGI [31]?
Answer: The TGI was 82.1 µM.

Question: And the TGI [32]?
Answer: The TGI was greater than 100 µM.

Question: What about the TGI [33] of the same compound?
Answer: The TGI was greater than 100 µM.

Question: And the TGI [34]?
Answer: The TGI was greater than 100 µM.

Question: And the TGI [35]?
Answer: Its TGI is 89.3 µM.

Question: What about the TGI [36] of the same compound?
Answer: The TGI was greater than 100 µM.

Question: What about the TGI [37] of the same compound?
Answer: The TGI was greater than 100 µM.

Question: What about the TGI [38] of the same compound?
Answer: Its TGI is 76.8 µM.

Question: And the TGI [39]?
Answer: Its TGI is 70.7 µM.

Question: And the TGI [40]?
Answer: Its TGI is greater than 100 µM.

Question: What about the TGI [41] of the same compound?
Answer: The TGI was 48.8 µM.

Question: What about the TGI [42] of the same compound?
Answer: The TGI was greater than 100 µM.

Question: And the TGI [43]?
Answer: The TGI was greater than 100 µM.

Question: And the TGI [44]?
Answer: Its TGI is 85.5 µM.

Question: What about the TGI [45] of the same compound?
Answer: Its TGI is 59.8 µM.

Question: What about the TGI [46] of the same compound?
Answer: Its TGI is greater than 100 µM.

Question: And the TGI [47]?
Answer: The TGI was greater than 100 µM.

Question: What about the TGI [48] of the same compound?
Answer: Its TGI is greater than 100 µM.

Question: And the TGI [49]?
Answer: The TGI was greater than 100 µM.

Question: And the TGI [50]?
Answer: Its TGI is greater than 100 µM.

Question: And the TGI [51]?
Answer: The TGI was greater than 100 µM.

Question: And the TGI [52]?
Answer: The TGI was greater than 100 µM.

Question: What about the TGI [53] of the same compound?
Answer: Its TGI is greater than 100 µM.

Question: For `CC1(C)Cc2c(cnn2-c2ccc(C(F)(F)F)cc2)-c2nc(-c3ccc(O)cc3)[nH]c21`, which TGI [1] is on record?
Answer: Its TGI is 41.2 µM.

Question: What about the TGI [2] of the same compound?
Answer: The TGI was 30 µM.

Question: What about the TGI [3] of the same compound?
Answer: Its TGI is 52.3 µM.

Question: And the TGI [4]?
Answer: The TGI was 45 µM.

Question: What about the TGI [5] of the same compound?
Answer: Its TGI is 51.5 µM.

Question: What about the TGI [54] of the same compound?
Answer: Its TGI is 29.7 µM.

Question: And the TGI [6]?
Answer: Its TGI is 28.4 µM.

Question: And the TGI [7]?
Answer: The TGI was 39.1 µM.

Question: And the TGI [8]?
Answer: Its TGI is 33.9 µM.

Question: And the TGI [9]?
Answer: Its TGI is 35.6 µM.

Question: And the TGI [10]?
Answer: Its TGI is 25.8 µM.

Question: What about the TGI [11] of the same compound?
Answer: The TGI was 45.3 µM.

Question: And the TGI [55]?
Answer: The TGI was 43 µM.

Question: And the TGI [13]?
Answer: Its TGI is 31.8 µM.

Question: What about the TGI [14] of the same compound?
Answer: The TGI was 29.4 µM.

Question: What about the TGI [15] of the same compound?
Answer: Its TGI is 30.9 µM.

Question: And the TGI [16]?
Answer: The TGI was 58.2 µM.

Question: What about the TGI [17] of the same compound?
Answer: Its TGI is 38.6 µM.

Question: And the TGI [18]?
Answer: Its TGI is 35.3 µM.

Question: What about the TGI [19] of the same compound?
Answer: Its TGI is 70.2 µM.

Question: And the TGI [20]?
Answer: The TGI was 21 µM.

Question: What about the TGI [21] of the same compound?
Answer: Its TGI is 36.2 µM.

Question: What about the TGI [22] of the same compound?
Answer: The TGI was 31.6 µM.

Question: What about the TGI [23] of the same compound?
Answer: The TGI was 39.6 µM.

Question: What about the TGI [24] of the same compound?
Answer: The TGI was 28.7 µM.

Question: What about the TGI [25] of the same compound?
Answer: The TGI was 34.4 µM.

Question: And the TGI [26]?
Answer: Its TGI is 38 µM.

Question: And the TGI [27]?
Answer: Its TGI is 33.2 µM.

Question: What about the TGI [28] of the same compound?
Answer: The TGI was 40.7 µM.

Question: What about the TGI [56] of the same compound?
Answer: The TGI was 11.2 µM.

Question: What about the TGI [29] of the same compound?
Answer: Its TGI is 38.5 µM.

Question: And the TGI [30]?
Answer: The TGI was 42.9 µM.

Question: And the TGI [31]?
Answer: The TGI was 43.7 µM.

Question: What about the TGI [57] of the same compound?
Answer: The TGI was 23 µM.

Question: What about the TGI [32] of the same compound?
Answer: The TGI was 86.1 µM.

Question: What about the TGI [33] of the same compound?
Answer: The TGI was 28.5 µM.

Question: What about the TGI [34] of the same compound?
Answer: The TGI was 22.7 µM.

Question: What about the TGI [35] of the same compound?
Answer: Its TGI is 31 µM.

Question: What about the TGI [36] of the same compound?
Answer: Its TGI is 25.2 µM.

Question: What about the TGI [37] of the same compound?
Answer: The TGI was 30.7 µM.

Question: And the TGI [38]?
Answer: The TGI was 12.6 µM.

Question: What about the TGI [39] of the same compound?
Answer: Its TGI is 15.6 µM.

Question: And the TGI [40]?
Answer: Its TGI is 34.6 µM.

Question: What about the TGI [41] of the same compound?
Answer: The TGI was 45.1 µM.

Question: And the TGI [42]?
Answer: Its TGI is 33.3 µM.

Question: What about the TGI [43] of the same compound?
Answer: The TGI was 37.8 µM.

Question: What about the TGI [45] of the same compound?
Answer: The TGI was 40.1 µM.

Question: What about the TGI [58] of the same compound?
Answer: The TGI was 26.2 µM.

Question: And the TGI [47]?
Answer: The TGI was 33.9 µM.

Question: And the TGI [48]?
Answer: The TGI was 29.2 µM.

Question: And the TGI [49]?
Answer: Its TGI is 38.6 µM.

Question: And the TGI [50]?
Answer: The TGI was 28.5 µM.

Question: What about the TGI [51] of the same compound?
Answer: Its TGI is 28.5 µM.

Question: What about the TGI [52] of the same compound?
Answer: The TGI was 34 µM.

Question: And the TGI [53]?
Answer: Its TGI is 17.4 µM.
